Experiments:
Assay type in all cases: cell-based
[1] = test system: Fusarium culmorum; test: Fusarium culmorum (Root Rot) growth inhibition, microtiter plate, photometric
Experimental: Fusarium culmorum (Root Rot):
(§1) Conidia of the fungus from cryogenic storage were directly mixed into nutrient broth (potato dextrose broth). After placing a (DMSO) solution of the test compounds into a microtiter plate (96-well format) the nutrient broth containing the fungal spores was added.

[2] = test system: Septoria tritici; test: Septoria tritici (Leaf Blotch) growth inhibition, microtiter plate, photometric; settings: for AVERAGE DEAD IN % A5: A5 alone; for AVERAGE DEAD IN %: alone; for AVERAGE DEAD IN % A6: A6 alone
Experimental: Septoria tritici (Leaf Blotch):
as §1

[3] = test system: Glomerella lagenarium (syn. Colletotrichum lagenarium); test: Glomerella lagenarium (Anthracnose of Cucurbits) growth inhibition, microtiter plate, photometric; settings: alone
Experimental: Glomerella lagenarium (syn. Colletotrichum lagenarium), Anthracnose of Cucurbits:
as §1

[4] = test system: Mycosphaerella arachidis (syn. Cercospora arachidicola); test: Mycosphaerella arachidis (Brown Leaf Spot of Groundnut) growth inhibition, microtiter plate, photometric; settings: alone
Experimental: Mycosphaerella arachidis (syn. Cercospora arachidicola), Brown Leaf Spot of Groundnut (Peanut):
as §1

[5] = test system: Rhizoctonia solani; test: Rhizoctonia solani (Foot Rot, Damping-Off) growth inhibition, microtiter plate, photometric
Experimental: Rhizoctonia solani (Foot Rot, Damping-Off):
Mycelial fragments of the fungus from cryogenic storage were directly mixed into nutrient broth (potato dextrose broth). After placing a (DMSO) solution of the test compounds into a microtiter plate (96-well format) the nutrient broth containing the fungal spores was added.

[6] = test system: Pythium ultimum; test: Pythium ultimum (Damping Off) growth inhibition, microtiter plate, photometric
Experimental: Pythium ultimum (Damping Off):
Mycelial fragments of the fungus, prepared from a fresh liquid culture, were directly mixed into nutrient broth (potato dextrose broth). After placing a (DMSO) solution of the test compounds into a microtiter plate (96-well format) the nutrient broth containing the fungal spores was added.

[7] = test system: Gaeumannomyces graminis; test: Gaeumannomyces graminis growth inhibition, microtiter plate, photometric
Experimental: Mycelial fragments of the fungus from cryogenic storage were directly mixed into nutrient broth (potato dextrose broth). After placing a (DMSO) solution of the test compounds into a microliter plate (96-well format) the nutrient broth containing the fungal spores was added.

[8] = single compound, 2.5 PPM AI, 48 hrs, 24° C.
[9] = single compound, 5 PPM AI, 48 hrs, 24° C.
[10] = single compound, 10 PPM AI, 48 hrs, 24° C.
[11] = single compound, 20 PPM AI, 48 hrs, 24° C.
[12] = applied alone, 0.0390625 ppm AI
[13] = single compound at 0.0390625 ppm AI
[14] = single compound at 0.078125 ppm AI
[15] = single compound at 0.15625 ppm AI
[16] = single compound at 0.3125 ppm AI
[17] = single compound at 0.625 ppm AI

Cc1cc(C2=NOC(c3cc(Cl)cc(Cl)c3)(C(F)(F)F)C2)ccc1C(=O)NC1CSC1 (racemic) [A5]
0%: AVERAGE DEAD IN % ([1]; alone, 1.25 PPM AI) | AVERAGE DEAD IN % ([1]; alone, 2.5 PPM AI) | AVERAGE DEAD IN % ([1]; alone, 5 PPM AI) | AVERAGE DEAD IN % ([1]; alone, 10 PPM AI) | AVERAGE DEAD IN % ([1]; alone, 20 PPM AI) | AVERAGE DEAD IN % ([1]; single compound, 0.625 PPM AI, 48 hrs, 24° C.) | AVERAGE DEAD IN % ([1]; single compound, 1.25 PPM AI, 48 hrs, 24° C.) | AVERAGE DEAD IN % [1, 8] | AVERAGE DEAD IN % [1, 9] | AVERAGE DEAD IN % [1, 10] | AVERAGE DEAD IN % [1, 11] | AVERAGE DEAD IN % A5 ([2]; 0.0390625 ppm AI) | AVERAGE DEAD IN % A5 ([2]; 0.078125 ppm AI) | AVERAGE DEAD IN % A5 ([2]; 0.15625 ppm AI) | AVERAGE DEAD IN % A5 ([2]; 0.3125 ppm AI) | AVERAGE DEAD IN % A5 ([2]; 0.625 ppm AI) | AVERAGE DEAD IN % A5 ([2]; 1.25 ppm AI) | AVERAGE DEAD IN % A5 ([2]; 2.5 ppm AI) | AVERAGE DEAD IN % A5 ([2]; 5 ppm AI) | AVERAGE DEAD IN % A5 ([2]; 10 ppm AI) | AVERAGE DEAD IN % ([3]; 0.0390625 ppm AI) | AVERAGE DEAD IN % ([3]; 0.078125 ppm AI) | AVERAGE DEAD IN % ([3]; 0.15625 ppm AI) | AVERAGE DEAD IN % ([3]; 0.3125 ppm AI) | AVERAGE DEAD IN % ([3]; 0.625 ppm AI) | AVERAGE DEAD IN % ([3]; 1.25 ppm AI) | AVERAGE DEAD IN % ([3]; 2.5 ppm AI) | AVERAGE DEAD IN % ([3]; 5 ppm AI) | AVERAGE DEAD IN % ([3]; 10 ppm AI) | AVERAGE DEAD IN % ([3]; 20 ppm AI) | AVERAGE DEAD IN % ([4]; 0.078125 ppm AI) | AVERAGE DEAD IN % ([4]; 0.15625 ppm AI) | AVERAGE DEAD IN % ([4]; 0.3125 ppm AI) | AVERAGE DEAD IN % ([4]; 0.625 ppm AI) | AVERAGE DEAD IN % ([4]; 1.25 ppm AI) | AVERAGE DEAD IN % ([4]; 2.5 ppm AI) | AVERAGE DEAD IN % ([4]; 5 ppm AI) | AVERAGE DEAD IN % ([4]; 10 ppm AI) | AVERAGE DEAD IN % ([4]; 20 ppm AI) | AVERAGE DEAD IN % ([4]; 0.0390625 PPM AI) | AVERAGE DEAD IN % ([4]; 0.078125 PPM AI) | AVERAGE DEAD IN % ([4]; 0.15625 PPM AI) | AVERAGE DEAD IN % ([4]; 0.3125 PPM AI) | AVERAGE DEAD IN % ([4]; 0.625 PPM AI) | AVERAGE DEAD IN % ([4]; 1.25 PPM AI) | AVERAGE DEAD IN % ([4]; 2.5 PPM AI) | AVERAGE DEAD IN % ([4]; 5 PPM AI) | AVERAGE DEAD IN % ([4]; 10 PPM AI) | AVERAGE DEAD IN % [5, 12] | AVERAGE DEAD IN % ([5]; applied alone, 0.078125 ppm AI) | AVERAGE DEAD IN % ([5]; applied alone, 0.15625 ppm AI) | AVERAGE DEAD IN % ([5]; applied alone, 0.3125 ppm AI) | AVERAGE DEAD IN % ([5]; applied alone, 0.625 ppm AI) | AVERAGE DEAD IN % ([5]; applied alone, 1.25 ppm AI) | AVERAGE DEAD IN % ([5]; applied alone, 2.5 ppm AI) | AVERAGE DEAD IN % ([5]; applied alone, 5 ppm AI) | AVERAGE DEAD IN % ([5]; applied alone, 10 ppm AI) | AVERAGE DEAD IN % ([5]; applied alone, 20 ppm AI) | AVERAGE DEAD IN % ([5]; single compound at 2.5 ppm AI) | AVERAGE DEAD IN % [6, 13] | AVERAGE DEAD IN % [6, 14] | AVERAGE DEAD IN % [6, 15] | AVERAGE DEAD IN % [6, 16] | AVERAGE DEAD IN % [6, 17] | AVERAGE DEAD IN % ([6]; single compound at 1.25 ppm AI) | AVERAGE DEAD IN % ([6]; single compound at 2.5 ppm AI) | AVERAGE DEAD IN % ([6]; single compound at 5 ppm AI) | AVERAGE DEAD IN % ([6]; single compound at 10 ppm AI) | AVERAGE DEAD IN % ([6]; single compound at 20 ppm AI) | AVERAGE DEAD IN % [7, 13] | AVERAGE DEAD IN % [7, 14] | AVERAGE DEAD IN % [7, 15] | AVERAGE DEAD IN % [7, 16] | AVERAGE DEAD IN % [7, 17] | AVERAGE DEAD IN % ([7]; single compound at 1.25 ppm AI) | AVERAGE DEAD IN % ([7]; single compound at 2.5 ppm AI) | AVERAGE DEAD IN % ([7]; single compound at 5 ppm AI) | AVERAGE DEAD IN % ([7]; single compound at 10 ppm AI) | AVERAGE DEAD IN % ([7]; single compound at 20 ppm AI)

Cc1cc(C2=NOC(c3cc(Cl)cc(Cl)c3)(C(F)(F)F)C2)ccc1C(=O)NC1C[S+]([O-])C1 (stereo not shown) [A6]
0%: AVERAGE DEAD IN % [1, 8] | AVERAGE DEAD IN % [1, 9] | AVERAGE DEAD IN % [1, 10] | AVERAGE DEAD IN % [1, 11] | AVERAGE DEAD IN % ([2]; 0.3125 ppm AI) | AVERAGE DEAD IN % ([2]; 0.625 ppm AI) | AVERAGE DEAD IN % ([2]; 1.25 ppm AI) | AVERAGE DEAD IN % ([2]; 2.5 ppm AI) | AVERAGE DEAD IN % ([2]; 5 ppm AI) | AVERAGE DEAD IN % ([2]; 10 ppm AI) | AVERAGE DEAD IN % ([2]; 20 ppm AI) | AVERAGE DEAD IN % A6 ([2]; 0.0390625 ppm AI) | AVERAGE DEAD IN % A6 ([2]; 0.078125 ppm AI) | AVERAGE DEAD IN % A6 ([2]; 0.15625 ppm AI) | AVERAGE DEAD IN % A6 ([2]; 0.3125 ppm AI) | AVERAGE DEAD IN % A6 ([2]; 0.625 ppm AI) | AVERAGE DEAD IN % A6 ([2]; 1.25 ppm AI) | AVERAGE DEAD IN % A6 ([2]; 2.5 ppm AI) | AVERAGE DEAD IN % A6 ([2]; 5 ppm AI) | AVERAGE DEAD IN % A6 ([2]; 10 ppm AI) | AVERAGE DEAD IN % A6 ([2]; 20 ppm AI) | AVERAGE DEAD IN % ([3]; 0.078125 ppm AI) | AVERAGE DEAD IN % ([3]; 0.15625 ppm AI) | AVERAGE DEAD IN % ([3]; 2.5 ppm AI) | AVERAGE DEAD IN % ([3]; 5 ppm AI) | AVERAGE DEAD IN % ([3]; 10 ppm AI) | AVERAGE DEAD IN % ([3]; 20 ppm AI) | AVERAGE DEAD IN % ([4]; 0.0390625 PPM AI) | AVERAGE DEAD IN % ([4]; 0.078125 PPM AI) | AVERAGE DEAD IN % ([4]; 0.15625 PPM AI) | AVERAGE DEAD IN % ([4]; 0.3125 PPM AI) | AVERAGE DEAD IN % ([4]; 0.625 PPM AI) | AVERAGE DEAD IN % ([4]; 1.25 PPM AI) | AVERAGE DEAD IN % ([4]; 2.5 PPM AI) | AVERAGE DEAD IN % ([4]; 5 PPM AI) | AVERAGE DEAD IN % ([4]; 10 PPM AI) | AVERAGE DEAD IN % ([4]; 20 PPM AI) | AVERAGE DEAD IN % [5, 12] | AVERAGE DEAD IN % ([5]; applied alone, 0.078125 ppm AI) | AVERAGE DEAD IN % ([5]; applied alone, 0.15625 ppm AI) | AVERAGE DEAD IN % ([5]; applied alone, 0.3125 ppm AI) | AVERAGE DEAD IN % ([5]; applied alone, 0.625 ppm AI) | AVERAGE DEAD IN % ([5]; applied alone, 1.25 ppm AI) | AVERAGE DEAD IN % ([5]; applied alone, 2.5 ppm AI) | AVERAGE DEAD IN % ([5]; applied alone, 5 ppm AI) | AVERAGE DEAD IN % ([5]; applied alone, 10 ppm AI) | AVERAGE DEAD IN % ([5]; applied alone, 20 ppm AI) | AVERAGE DEAD IN % [6, 14] | AVERAGE DEAD IN % [6, 15] | AVERAGE DEAD IN % [6, 16] | AVERAGE DEAD IN % [6, 17] | AVERAGE DEAD IN % ([6]; single compound at 1.25 ppm AI) | AVERAGE DEAD IN % ([6]; single compound at 2.5 ppm AI) | AVERAGE DEAD IN % ([6]; single compound at 5 ppm AI) | AVERAGE DEAD IN % ([6]; single compound at 10 ppm AI) | AVERAGE DEAD IN % ([6]; single compound at 20 ppm AI) | AVERAGE DEAD IN % [7, 13] | AVERAGE DEAD IN % [7, 14] | AVERAGE DEAD IN % [7, 15] | AVERAGE DEAD IN % [7, 16] | AVERAGE DEAD IN % [7, 17] | AVERAGE DEAD IN % ([7]; single compound at 1.25 ppm AI) | AVERAGE DEAD IN % ([7]; single compound at 2.5 ppm AI) | AVERAGE DEAD IN % ([7]; single compound at 5 ppm AI) | AVERAGE DEAD IN % ([7]; single compound at 10 ppm AI) | AVERAGE DEAD IN % ([7]; single compound at 20 ppm AI)

Source: US20120324604A1, “PESTICIDAL MIXTURES CONTAINING ISOXAZOLINE DERIVATIVES AND A FUNGICIDE” (priority 2010, published 2012)
